Assay results: patent US6358885B1, “Substituted phenylheterocyclic herbicides” (Mississippi State University, priority 1992, dated 2002)

Columns and labels:
barley [1] = assay: Test B preemergence/postemergence greenhouse plant response rating 0 to 10; format: in vivo, Hordeum vulgare; settings: 0 to 10 scale
Outline: (§1)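 Both application timings were run together: seeds got compound preemergence, and established seedlings (two to eighteen cm) got it postemergence. Non-phytotoxic solvent carried the chemical. Ratings are visual, versus controls, at twelve to sixteen days.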

bedstraw = assay: as above; format: in vivo, Galium aparine; settings: 0 to 10 scale
Outline: as §1

chickweed [2] = assay: as above; format: in vivo, Stellaria media; settings: 0 to 10 scale
Outline: as §1

cocklebur = assay: as above; format: in vivo, Xanthium pensylvanicum; settings: 0 to 10 scale
Outline: as §1

morningglory = assay: as above; format: in vivo, Ipomoea hederacea; settings: 0 to 10 scale
Outline: as §1

sorghum = assay: as above; format: in vivo, Sorghum bicolor; settings: 0 to 10 scale
Outline: as §1

soybean [3] = assay: as above; format: in vivo, Glycine max; settings: 0 to 10 scale
Outline: as §1

sugar beet = assay: as above; format: in vivo, Beta vulgaris; settings: 0 to 10 scale
Outline: as §1

velvetleaf = assay: as above; format: in vivo, Abutilon theophrasti; settings: 0 to 10 scale
Outline: as §1

wild buckwheat = assay: as above; format: in vivo, Polygonum convolvulus; settings: 0 to 10 scale
Outline: as §1

barley [4] = assay: Test C preemergence/postemergence greenhouse plant response rating 0 to 100; format: in vivo, Hordeum vulgare; settings: for Plant response rating Barley Igri: 62 g/ha, 0 to 100 scale
Outline: (§2)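 Compounds in non-phytotoxic solvent went onto sandy loam before emergence (seeded one day earlier) or onto plants at the one-to-four leaf stage. Duck salad was treated via flood water (~2.5 cm, maintained) over silt loam.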

blackgrass = assay: as above; format: in vivo, Alopecurus myosuroides; settings: for Plant response rating, Blackgrass: 62 g/ha, 0 to 100 scale
Outline: as §2

chickweed [5] = assay: as above; format: in vivo, Stellaria media; settings: for Plant response rating, Chickweed: 62 g/ha, 0 to 100 scale
Outline: as §2

pigweed = assay: as above; format: in vivo, Amaranthusretroflexus; settings: for Plant response rating Pigweed: 62 g/ha, 0 to 100 scale
Outline: as §2

rape = assay: as above; format: in vivo, Brassica napus; settings: for Plant response rating, Rape: 62 g/ha, 0 to 100 scale
Outline: as §2

ryegrass = assay: as above; format: in vivo, Lolium multiflorum; settings: for Plant response rating Ryegrass: 62 g/ha, 0 to 100 scale
Outline: as §2

soybean [6] = assay: as above; format: in vivo, Glycine max
Outline: as §2

umbrella sedge = assay: Test C flood test plant response rating 0 to 100; format: in vivo, Cyperus difformis
Outline: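 Compounds in non-phytotoxic solvent applied preemergence to sandy loam one day after planting, postemergence at the 1–4 leaf stage, or to ~2.5 cm floodwater over silt loam.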

SMILES: CCN1C(=O)COc2cc(F)c(-c3nn4c(c3Cl)CCCC4)cc21 [Compound 54]
- Plant response rating, Barley (barley [1]; POSTEMERGENCE, Rate 10 g/ha): 4
- Plant response rating, Barley (barley [1]; POSTEMERGENCE, Rate 50 g/ha): 4
- Plant response rating, Barley (barley [1]; PREEMERGENCE, Rate 10 g/ha): 0
- Plant response rating, Barley (barley [1]; PREEMERGENCE, Rate 50 g/ha): 2
- Plant response rating, Bedstraw (bedstraw; POSTEMERGENCE, Rate 10 g/ha): 9
- Plant response rating, Bedstraw (bedstraw; POSTEMERGENCE, Rate 50 g/ha): 9
- Plant response rating, Bedstraw (bedstraw; PREEMERGENCE, Rate 10 g/ha): 8
- Plant response rating, Bedstraw (bedstraw; PREEMERGENCE, Rate 50 g/ha): 9
- Plant response rating, Chickweed (chickweed [2]; POSTEMERGENCE, Rate 50 g/ha): 10
- Plant response rating, Chickweed (chickweed [2]; PREEMERGENCE, Rate 10 g/ha): 9
- Plant response rating, Chickweed (chickweed [2]; PREEMERGENCE, Rate 50 g/ha): 10
- Plant response rating, Cocklebur (cocklebur; POSTEMERGENCE, Rate 10 g/ha): 9
- Plant response rating, Cocklebur (cocklebur; POSTEMERGENCE, Rate 50 g/ha): 10
- Plant response rating, Cocklebur (cocklebur; PREEMERGENCE, Rate 10 g/ha): 0
- Plant response rating, Cocklebur (cocklebur; PREEMERGENCE, Rate 50 g/ha): 0
- Plant response rating, Morningglory (morningglory; POSTEMERGENCE, Rate 10 g/ha): 9
- Plant response rating, Morningglory (morningglory; POSTEMERGENCE, Rate 50 g/ha): 9
- Plant response rating, Morningglory (morningglory; PREEMERGENCE, Rate 50 g/ha): 3
- Plant response rating, Sorghum (sorghum; POSTEMERGENCE, Rate 10 g/ha): 3
- Plant response rating, Sorghum (sorghum; POSTEMERGENCE, Rate 50 g/ha): 3
- Plant response rating, Sorghum (sorghum; PREEMERGENCE, Rate 50 g/ha): 1
- Plant response rating, Soybean (soybean [3]; POSTEMERGENCE, Rate 10 g/ha): 8
- Plant response rating, Soybean (soybean [3]; POSTEMERGENCE, Rate 50 g/ha): 9
- Plant response rating, Soybean (soybean [3]; PREEMERGENCE, Rate 50 g/ha): 0
- Plant response rating, Sugar beet (sugar beet; POSTEMERGENCE, Rate 10 g/ha): 10
- Plant response rating, Sugar beet (sugar beet; POSTEMERGENCE, Rate 50 g/ha): 10
- Plant response rating, Sugar beet (sugar beet; PREEMERGENCE, Rate 50 g/ha): 9
- Plant response rating, Velvetleaf (velvetleaf; POSTEMERGENCE, Rate 10 g/ha): 8
- Plant response rating, Velvetleaf (velvetleaf; POSTEMERGENCE, Rate 50 g/ha): 9
- Plant response rating, Velvetleaf (velvetleaf; PREEMERGENCE, Rate 50 g/ha): 10
- Plant response rating, Wild buckwheat (wild buckwheat; POSTEMERGENCE, Rate 10 g/ha): 10
- Plant response rating, Wild buckwheat (wild buckwheat; POSTEMERGENCE, Rate 50 g/ha): 10
- Plant response rating, Wild buckwheat (wild buckwheat; PREEMERGENCE, Rate 50 g/ha): 10
- Plant response rating Barley Igri (barley [4]; POSTEMERGENCE): 50
- Plant response rating (0 to 100), Barley Igri (barley [4]; POSTEMERGENCE, Rate 1 g/ha): 30
- Plant response rating (0 to 100), Barley Igri (barley [4]; POSTEMERGENCE, Rate 4 g/ha): 40
- Plant response rating Barley Igri (barley [4]; PREEMERGENCE): 10
- Plant response rating (0 to 100), Barley Igri (barley [4]; PREEMERGENCE, Rate 1 g/ha): 0
- Plant response rating (0 to 100), Barley Igri (barley [4]; PREEMERGENCE, Rate 4 g/ha): 0
- Plant response rating (0 to 100), Barley Igri (barley [4]; Rate 16 g/ha, POSTEMERGENCE): 50
- Plant response rating (0 to 100), Barley Igri (barley [4]; Rate 16 g/ha, PREEMERGENCE): 0
- Plant response rating, Blackgrass (blackgrass; POSTEMERGENCE): 60
- Plant response rating (0 to 100), Blackgrass (blackgrass; POSTEMERGENCE, Rate 1 g/ha): 30
- Plant response rating (0 to 100), Blackgrass (blackgrass; POSTEMERGENCE, Rate 4 g/ha): 40
- Plant response rating, Blackgrass (blackgrass; PREEMERGENCE): 70
- Plant response rating (0 to 100), Blackgrass (blackgrass; PREEMERGENCE, Rate 1 g/ha): 0
- Plant response rating (0 to 100), Blackgrass (blackgrass; PREEMERGENCE, Rate 4 g/ha): 10
- Plant response rating (0 to 100), Blackgrass (blackgrass; Rate 16 g/ha, POSTEMERGENCE): 50
- Plant response rating (0 to 100), Blackgrass (blackgrass; Rate 16 g/ha, PREEMERGENCE): 20
- Plant response rating, Chickweed (chickweed [5]; POSTEMERGENCE): 100
- Plant response rating (0 to 100), Chickweed (chickweed [5]; POSTEMERGENCE, Rate 1 g/ha): 60
- Plant response rating (0 to 100), Chickweed (chickweed [5]; POSTEMERGENCE, Rate 4 g/ha): 75
- Plant response rating, Chickweed (chickweed [5]; PREEMERGENCE): 100
- Plant response rating (0 to 100), Chickweed (chickweed [5]; PREEMERGENCE, Rate 1 g/ha): 0
- Plant response rating (0 to 100), Chickweed (chickweed [5]; PREEMERGENCE, Rate 4 g/ha): 0
- Plant response rating (0 to 100), Chickweed (chickweed [5]; Rate 16 g/ha, POSTEMERGENCE): 100
- Plant response rating (0 to 100), Chickweed (chickweed [5]; Rate 16 g/ha, PREEMERGENCE): 20
- Plant response rating Pigweed (pigweed; POSTEMERGENCE): 100
- Plant response rating (0 to 100), Pigweed (pigweed; POSTEMERGENCE, Rate 1 g/ha): 95
- Plant response rating (0 to 100), Pigweed (pigweed; POSTEMERGENCE, Rate 4 g/ha): 100
- Plant response rating Pigweed (pigweed; PREEMERGENCE): 100
- Plant response rating (0 to 100), Pigweed (pigweed; PREEMERGENCE, Rate 1 g/ha): 0
- Plant response rating (0 to 100), Pigweed (pigweed; PREEMERGENCE, Rate 4 g/ha): 90
- Plant response rating (0 to 100), Pigweed (pigweed; Rate 16 g/ha, POSTEMERGENCE): 100
- Plant response rating (0 to 100), Pigweed (pigweed; Rate 16 g/ha, PREEMERGENCE): 100
- Plant response rating, Rape (rape; POSTEMERGENCE): 100
- Plant response rating (0 to 100), Rape (rape; POSTEMERGENCE, Rate 1 g/ha): 50
- Plant response rating (0 to 100), Rape (rape; POSTEMERGENCE, Rate 4 g/ha): 50
- Plant response rating, Rape (rape; PREEMERGENCE): 10
- Plant response rating (0 to 100), Rape (rape; PREEMERGENCE, Rate 1 g/ha): 0
- Plant response rating (0 to 100), Rape (rape; PREEMERGENCE, Rate 4 g/ha): 0
- Plant response rating (0 to 100), Rape (rape; Rate 16 g/ha, POSTEMERGENCE): 100
- Plant response rating (0 to 100), Rape (rape; Rate 16 g/ha, PREEMERGENCE): 0
- Plant response rating Ryegrass (ryegrass; POSTEMERGENCE): 60
- Plant response rating (0 to 100), Ryegrass (ryegrass; POSTEMERGENCE, Rate 1 g/ha): 10
- Plant response rating (0 to 100), Ryegrass (ryegrass; POSTEMERGENCE, Rate 4 g/ha): 30
- Plant response rating Ryegrass (ryegrass; PREEMERGENCE): 70
- Plant response rating (0 to 100), Ryegrass (ryegrass; PREEMERGENCE, Rate 1 g/ha): 0
- Plant response rating (0 to 100), Ryegrass (ryegrass; PREEMERGENCE, Rate 4 g/ha): 0
- Plant response rating (0 to 100), Ryegrass (ryegrass; Rate 16 g/ha, POSTEMERGENCE): 40
- Plant response rating (0 to 100), Ryegrass (ryegrass; Rate 16 g/ha, PREEMERGENCE): 30
- Plant response rating, Soybean (soybean [6]; POSTEMERGENCE, 62 g/ha, 0 to 100 scale): 95
- Plant response rating (0 to 100), Soybean (soybean [6]; POSTEMERGENCE, Rate 1 g/ha): 50
- Plant response rating (0 to 100), Soybean (soybean [6]; POSTEMERGENCE, Rate 4 g/ha): 65
- Plant response rating (0 to 100), Soybean (soybean [6]; PREEMERGENCE, Rate 1 g/ha): 0
- Plant response rating (0 to 100), Soybean (soybean [6]; PREEMERGENCE, Rate 4 g/ha): 0
- Plant response rating (0 to 100), Soybean (soybean [6]; Rate 16 g/ha, POSTEMERGENCE): 85
- Plant response rating (0 to 100), Soybean (soybean [6]; Rate 16 g/ha, PREEMERGENCE): 0
- Plant response rating (0 to 100), Umbrella sedge (umbrella sedge; POSTEMERGENCE section, flood test, Rate 1 g/ha): 0
- Plant response rating (0 to 100), Umbrella sedge (umbrella sedge; POSTEMERGENCE section, flood test, Rate 4 g/ha): 0
- Plant response rating (0 to 100), Umbrella sedge (umbrella sedge; Rate 16 g/ha, under POSTEMERGENCE head (flood test species)): 10
- Plant response rating Umbrella sedge (umbrella sedge; flood test species listed under POSTEMERGENCE, 62 g/ha, 0 to 100 scale): 70
